Data: patent US20220023289A1, “Application Of Pyrroloquinoline Quinone In Preparation Of Medicament Used For Preventing And Treating Acute Altitude Sickness And Acute Altitude Hypoxia Injury” (priority 2018, published 2022)

Assays:
[1] = test system: rats exposed to acute altitude hypoxia; assay: Serum homocysteine in rats exposed to acute altitude hypoxia; assay type: in vivo, Wistar rat
Method: (§1) Select healthy Wistar rats weight 160-200 g, half female and half male. After feeding for 3 days, these Wistar rats are randomly divided into ten groups according to their body weight, each group has 16±2 rats. The groups are divided as follows: five groups of the hypoxic exposure drug test group, respectively, are given 0.91 mg/kg, 1.83 mg/kg, 3.66 mg/kg, 7.31 mg/kg, and 14.63 mg/kg drugs. […] After continuous intragastric administration for 7 days, the animals in the hypoxic exposure group are simultaneously put into the decompression and hypoxia compound experimental chamber, the hatch is closed, and the pressure is reduced at a speed of 10 m/s. After being raised to an altitude of 6000 m and maintained for 8 hours, the speed in 10 m/s drops is reduced to normal altitude, open the hatch, and then take out the animal, collect blood samples (after standing for 1 hour, the supernatant is centrifuged and stored at −20° C.), and liver tissue samples. Detection indicator includes body weight, serum blood glucose, ATP, lactic acid, endothelin, nitric oxide, SOD, CO, MDA related to oxidative stress, and total protein, albumin, triglycerides, total cholesterol, high-density lipoprotein cholesterol, low-density lipoprotein cholesterol, glutamic pyruvic transaminase, total bilirubin, gluamic oxalacetic transaminase, serum urea nitrogen, creatinine, uric acid, lactate dehydrogenase, creatine kinase, α-hydroxybutyrate dehydrogenase; liver ATP, hepatic glycogen. Except that the formal oxygen control animal group is not put into the decompression and hypoxia compound experimental chamber, other experimental conditions and detection indicators are the same.
(§2) Measure blood glucose, total protein, albumin, triglycerides, total cholesterol, high-density lipoprotein cholesterol, low-density lipoprotein cholesterol, glutamic-pyruvic transaminase, total bilirubin, glutamic oxalacetic transaminase, serum urea nitrogen, creatinine, uric acid, lactate dehydrogenase, creatine kinase, α-hydroxybutyrate dehydrogenase, blood homocysteine by using an automatic blood biochemical analyzer.

[2] = test system: rats exposed to acute altitude hypoxia; assay: Blood glucose in rats exposed to acute altitude hypoxia (6000 m, 8 h, after 7 days intragastric); assay type: in vivo, Wistar rat
Method: as §1, §2

[3] = test system: rats exposed to acute altitude hypoxia; assay: Liver function of rats exposed to acute altitude hypoxia; assay type: in vivo, Wistar rat
Method: as §1, §2

[4] = test system: mice exposed to high altitude hypoxia; assay: Exhaustive swimming experiment in mice exposed to high altitude hypoxia (6000 m); assay type: in vivo, Kunming mice; conditions: for Exhausted swimming survival time: 7 days
From the text: Select healthy male Kunming mice weight 18-22 g.

[5] = test system: rats exposed to acute altitude hypoxia; assay: Myocardial enzyme activity in rats exposed to acute altitude hypoxia; assay type: in vivo, Wistar rat
Method: as §1, §2

[6] = female rats, hypoxia, 0.91 mg/kg
[7] = female rats, hypoxia, 1.83 mg/kg
[8] = female rats, hypoxia, 3.66 mg/kg
[9] = female rats, hypoxia, 7.31 mg/kg
[10] = female rats, hypoxia, 14.63 mg/kg
[11] = female rats, normoxia, 3.66 mg/kg
[12] = male rats, hypoxia, 14.63 mg/kg
[13] = acute hypoxia exposed female rats

## O=C(O)c1cc(C(=O)O)c2c(n1)C(=O)C(=O)c1cc(C(=O)O)[nH]c1-2 [PQQ, pyrroloquinoline quinone]
[1]; [6]
  Serum homocysteine: 9.43 ± 1.4 µmol/L
[1]; [7]
  Serum homocysteine: 10.66 ± 2.13 µmol/L
[1]; [8]
  Serum homocysteine: 9.63 ± 1.97 µmol/L
[1]; [9]
  Serum homocysteine: 8.6 ± 1.72 µmol/L
[1]; [10]
  Serum homocysteine: 8.11 ± 1.37 µmol/L
[1]; female rats, normoxia
  effect on serum homocysteine: no significant effects
[1]; [11]
  Serum homocysteine: 9.76 ± 1.16 µmol/L
[1]; hypoxia exposed female rats
  effect on serum homocysteine: no significant effects
[1]; hypoxia exposed male rats
  effect on serum homocysteine: have been not found
[1]; male rats, hypoxia, 0.91 mg/kg
  Serum homocysteine: 11.18 ± 2.09 µmol/L
[1]; male rats, hypoxia, 1.83 mg/kg
  Serum homocysteine: 13.24 ± 3.87 µmol/L
[1]; male rats, hypoxia, 3.66 mg/kg
  Serum homocysteine: 13.65 ± 3.24 µmol/L
[1]; male rats, hypoxia, 7.31 mg/kg
  Serum homocysteine: 11.48 ± 2.36 µmol/L
[1]; [12]
  Serum homocysteine: 12.78 ± 2.87 µmol/L
[2]; [13]
  effect on blood glucose: increasing blood glucose
[2]; [6]
  Blood sugar: 8.59 ± 0.48 mmol/L
[2]; [7]
  Blood sugar: 8.28 ± 0.84 mmol/L
[2]; [8]
  Blood sugar: 8.27 ± 0.37 mmol/L
[2]; [9]
  Blood sugar: 7.91 ± 0.65 mmol/L
[2]; [10]
  Blood sugar: 7.55 ± 0.48 mmol/L
[2]; female rats, normoxia
  effect on blood glucose: no significant effects
[2]; [11]
  Blood sugar: 8.13 ± 0.57 mmol/L
[2]; male rats
  effect on blood glucose level: no significant effects
[2]; male rats, hypoxia, 0.91 mg/kg
  Blood sugar: 7.35 ± 1.94 mmol/L
[2]; male rats, hypoxia, 1.83 mg/kg
  Blood sugar: 8.21 ± 1.46 mmol/L
[2]; male rats, hypoxia, 3.66 mg/kg
  Blood sugar: 8.97 ± 1.44 mmol/L
[2]; male rats, hypoxia, 7.31 mg/kg
  Blood sugar: 8.28 ± 1.57 mmol/L
[2]; [12]
  Blood sugar: 8.85 ± 2.04 mmol/L
[3]; [13]
  effect on serum glutamic-pyruvic transaminase and glutamic oxalacetic transaminase activities: has been not found
[3]; [6]
  Glutamic oxalacetic transaminase: 80.71 ± 12.49 U
  Glutamic-pyruvic transaminase: 29.86 ± 4.30 U
[3]; [7]
  Glutamic oxalacetic transaminase: 84.71 ± 18.97 U
  Glutamic-pyruvic transaminase: 27.86 ± 6.28 U
[3]; [8]
  Glutamic oxalacetic transaminase: 82.29 ± 17.75 U
  Glutamic-pyruvic transaminase: 32.57 ± 5.35 U
[3]; [9]
  Glutamic oxalacetic transaminase: 79.29 ± 16.06 U
  Glutamic-pyruvic transaminase: 32.57 ± 6.37 U
[3]; [10]
  Glutamic oxalacetic transaminase: 83.00 ± 20.18 U
  Glutamic-pyruvic transaminase: 36.57 ± 8.52 U
[3]; female rats, normoxia
  effect on aspartate aminotransferase activity: slightly increasing
  effect on glutamic-pyruvic transaminase: no significant effect
[3]; [11]
  Glutamic oxalacetic transaminase: 120.29 ± 11.90 U
  Glutamic-pyruvic transaminase: 37.14 ± 4.45 U
[3]; male rats exposed to acute hypoxia
  effect on serum glutamic-pyruvic transaminase, glutamic oxalacetic transaminase and total bilirubin: is not found
[3]; male rats, hypoxia, 0.91 mg/kg
  Glutamic oxalacetic transaminase: 79.17 ± 15.66 U
  Glutamic-pyruvic transaminase: 36.63 ± 8.30 U
  Total bilirubin: 0.51 ± 0.12 µmol/L
[3]; male rats, hypoxia, 1.83 mg/kg
  Glutamic oxalacetic transaminase: 85.80 ± 13.80 U
  Glutamic-pyruvic transaminase: 40.63 ± 5.18 U
  Total bilirubin: 0.59 ± 0.12 µmol/L
[3]; male rats, hypoxia, 3.66 mg/kg
  Glutamic oxalacetic transaminase: 99.00 ± 15.52 U
  Glutamic-pyruvic transaminase: 42.50 ± 4.93 U
  Total bilirubin: 0.60 ± 0.15 µmol/L
[3]; male rats, hypoxia, 7.31 mg/kg
  Glutamic oxalacetic transaminase: 94.40 ± 12.28 U
  Glutamic-pyruvic transaminase: 43.13 ± 8.92 U
  Total bilirubin: 0.46 ± 0.15 µmol/L
[3]; [12]
  Glutamic oxalacetic transaminase: 109.00 ± 11.68 U
  Glutamic-pyruvic transaminase: 48.25 ± 8.86 U
  Total bilirubin: 0.53 ± 0.15 µmol/L
[4]; male mice, 6000 m
  start time of exhaustion swimming death: delayed
[4]; male mice, 6000 m, 1.32 mg/kg
  increasing rate of survival time: 52.49%
  Exhausted swimming survival time: 199.21 ± 98.54 min
[4]; male mice, 6000 m, 2.64 mg/kg
  increasing rate of survival time: 109.05%
  Exhausted swimming survival time: 273.10 ± 63.07 min
[4]; male mice, 6000 m, 5.28 mg/kg
  increasing rate of survival time: 32.54%
  Exhausted swimming survival time: 173.15 ± 116.32 min
[4]; male mice, 6000 m, 10.56 mg/kg
  increasing rate of survival time: 49.30%
  Exhausted swimming survival time: 195.04 ± 59.81 min
[4]; male mice, 6000 m, 21.12 mg/kg
  increasing rate of survival time: 101.47%
  Exhausted swimming survival time: 263.20 ± 48.27 min
[4]; male mice, 6000 m, each PQQ dose group
  time at which mice are completely dead: about 400 minutes
[4]; mice under low oxygen exposure
  effect on survival time after exhausting swimming / working ability under hypoxia: can prolong the survival time of mice after exhausting swimming
[5]; [6]
  Creatine Kinase: 505.43 ± 202.03 U/L
  Lactate dehydrogenase: 627.43 ± 253.66 U/L
  α-hydroxybutyrate dehydrogenase: 270.28 ± 111.79 U/L
[5]; [7]
  Creatine Kinase: 508.57 ± 235.83 U/L
  Lactate dehydrogenase: 650.00 ± 338.13 U/L
  α-hydroxybutyrate dehydrogenase: 286.71 ± 154.38 U/L
[5]; [8]
  Creatine Kinase: 459.14 ± 239.34 U/L
  Lactate dehydrogenase: 544.14 ± 314.26 U/L
  α-hydroxybutyrate dehydrogenase: 233.43 ± 147.72 U/L
[5]; [9]
  Creatine Kinase: 454.86 ± 241.51 U/L
  Lactate dehydrogenase: 499.71 ± 320.46 U/L
  α-hydroxybutyrate dehydrogenase: 210.14 ± 140.24 U/L
[5]; [10]
  Creatine Kinase: 439.86 ± 222.18 U/L
  Lactate dehydrogenase: 496.86 ± 259.65 U/L
  α-hydroxybutyrate dehydrogenase: 208.86 ± 112.12 U/L
[5]; female rats, normoxia
  effect on serum lactic dehydrogenase, creatine kinase, α-hydroxybutyrate dehydrogenase activity: increasing
[5]; [11]
  Creatine Kinase: 1024.00 ± 313.62 U/L
  Lactate dehydrogenase: 1199.14 ± 204.93 U/L
  α-hydroxybutyrate dehydrogenase: 537.29 ± 92.21 U/L
[5]; hypoxia exposed female rats
  effect on serum lactic dehydrogenase, creatine kinase, α-hydroxybutyrate dehydrogenase activity: has been not found
[5]; hypoxia exposed male rats
  effect on serum lactate dehydrogenase, creatine kinase, α-hydroxybutyrate dehydrogenase: has not been found
[5]; male rats, hypoxia, 0.91 mg/kg
  Creatine Kinase: 443.63 ± 260.18 U/L
  Lactate dehydrogenase: 463.38 ± 364.37 U/L
